Converted amounts (≈) assume the structure as drawn. Like-named read-outs stand apart in the source and are kept apart here.
Legend:
[1] = system: Colo205 human colon adenocarcinoma cell line; test: In vitro cytotoxicity MTT assay; assay type: cell-based; conditions: for IC50: Homo sapiens, COLO 205, 72 h incubation, MTT
Source text: (§1) Four cell lines were used in this study: the doxorubicin-sensitive Colo205 (CCL-222, ATCC, Manassas, VA, USA) human colon adenocarcinoma cell line; the doxorubicin-resistant Colo320/MDR-LRP expressing P-glycoprotein (P-gp, ABCB1) (MDR1)-LRP (CCL-220.1, ATCC) human colon adenocarcinoma cell line; the hormone-responsive MCF-7 breast cancer cell line and the normal MRC-5 human embryonal lung fibroblast cell line (CCL-171, ATCC). The human cancer cell lines were purchased from LGC Promochem (Teddington, UK), and the MRC-5 cell line is a Sigma-Aldrich (Merck KGaA, Darmstadt, Germany) product. The Colo205 and Colo320 cell lines were cultured in RPMI 1640 medium supplemented with 10% fetal bovine serum (FBS), 2 mM L-glutamine, 1 mM Na-pyruvate and 10 mM HEPES. The MCF-7 and MRC-5 cells were cultured in Eagle's Minimal Essential Medium (EMEM) containing 4.5 g L^−1 of glucose and supplemented with a non-essential amino acid mixture, a selection of vitamins and 10% FBS. All cell lines were incubated at 37 °C, 5% CO2, 95% air atmosphere. The cells were detached with Trypsin-Versene (EDTA) solution for 5 min at 37 °C.
(§2) Prior to the cytotoxicity assays 10 mM stock solutions of the tested compounds were prepared in DMSO. These stock solutions were diluted with the culture medium (EMEM or RPMI 1640), and twofold serial dilutions of the compounds were prepared in 100 μL of the appropriate medium. […] The positive control was doxorubicin (Merck), and CuCl2 was also tested. All cancer cells were treated with Trypsin-Versene (EDTA) solution. A cell density of 1 × 10^4 cells was adjusted for the colon adenocarcinoma cells in 100 μL of RPMI 1640 medium and were added to each well, except for the medium control wells. The final volume was 200 μL in the wells containing compounds and cells. The MCF-7 and MRC-5 cells were seeded overnight prior to the assay. The following day, the serial dilution of the compounds were made in separate plates and added to the cells. The culture plates were incubated at 37 °C for 72 h; and at the end of the incubation period, 20 μL of 5 mg mL^−1 3-(4,5-dimethylthiazol-2-yl)-2,5-diphenyltetrazolium bromide (MTT) solution was added to each well and incubated for 4 h at 37 °C. The plates were further incubated at 37 °C overnight following the addition of 100 μL of sodium dodecyl sulfate (SDS) solution (10% in 0.01 M HCl). The optical density (OD) was measured at 450 nm (ref. 620 nm) with a Multiscan EX ELISA reader to follow the cell growth. Inhibition of cell growth (expressed as IC50: inhibitory concentration that reduces by 50% the growth of the cells exposed to the tested compounds) was determined from the sigmoid curve, where 100 − ((ODsample − ODmedium control)/(ODcell control − ODmedium control)) × 100 values were plotted against the logarithm of compound concentrations. The sigmoidal dose–response model (comparing variable and fixed slopes) of the GraphPad Prism software[88] was used to fit the curves. The IC50 values are averages from at least 3 independent experiments.

[2] = system: doxorubicin-resistant Colo320 human colon adenocarcinoma cell line; test: In vitro cytotoxicity MTT assay; assay type: cell-based; conditions: for IC50: Homo sapiens, COLO 320, 72 h incubation, MTT
Source text: as §1, §2

[3] = system: normal human embryonal lung fibroblast cells (MRC-5); test: In vitro cytotoxicity MTT assay; assay type: cell-based; conditions: Homo sapiens, MRC5, 72 h incubation
Source text: as §1, §2

[4] = system: MCF-7 breast cancer cells; test: In vitro cytotoxicity MTT assay; assay type: cell-based, human; conditions: for IC50: Homo sapiens, MCF7, 72 h incubation, MTT
Description: The human cancer cell lines were purchased from LGC Promochem (Teddington, UK), and the MRC-5 cell line is a Sigma-Aldrich (Merck KGaA, Darmstadt, Germany) product. […] The MCF-7 and MRC-5 cells were cultured in Eagle's Minimal Essential Medium (EMEM) containing 4.5 g L^−1 of glucose and supplemented with a non-essential amino acid mixture, a selection of vitamins and 10% FBS. […] The cells were detached with Trypsin-Versene (EDTA) solution for 5 min at 37 °C.
Prior to the cytotoxicity assays 10 mM stock solutions of the tested compounds were prepared in DMSO. […] The positive control was doxorubicin (Merck), and CuCl2 was also tested. All cancer cells were treated with Trypsin-Versene (EDTA) solution. […] The final volume was 200 μL in the wells containing compounds and cells. The MCF-7 and MRC-5 cells were seeded overnight prior to the assay. The following day, the serial dilution of the compounds were made in separate plates and added to the cells. The culture plates were incubated at 37 °C for 72 h; and at the end of the incubation period, 20 μL of 5 mg mL^−1 3-(4,5-dimethylthiazol-2-yl)-2,5-diphenyltetrazolium bromide (MTT) solution was added to each well and incubated for 4 h at 37 °C. The plates were further incubated at 37 °C overnight following the addition of 100 μL of sodium dodecyl sulfate (SDS) solution (10% in 0.01 M HCl). The optical density (OD) was measured at 450 nm (ref. 620 nm) with a Multiscan EX ELISA reader to follow the cell growth. […] The sigmoidal dose–response model (comparing variable and fixed slopes) of the GraphPad Prism software[88] was used to fit the curves. The IC50 values are averages from at least 3 independent experiments.

[5] = Thermodynamic solubility by UV-vis in saturated solutions; assay type: physicochemical; conditions: 20 mM HEPES buffer, 25 °C, aqueous buffer, thermodynamic from solid; pH 7.4 (20 mM HEPES), aqueous solution, T = 298 K, I = 0.10 M (KCl); read-out: Thermodynamic solubility S 7.4
Description: The thermodynamic solubility (S) of the studied compounds was determined in saturated solutions at pH 7.40 (20 mM HEPES buffer) in the absence of DMSO at 25.0 ± 0.1 °C. UV–vis spectrophotometry was applied to determine the concentration of the compounds using calibrating samples of the compounds of known concentrations dissolved in 100% DMSO and 50% (v/v) DMSO/buffered aqueous solutions.

[6] = Proton dissociation constants of ligands by UV-vis titrations; assay type: physicochemical; conditions: DMSO:water 30:70 (v/v) mixture, 30:70% (v/v) DMSO/H2O, T = 298 K, I = 0.10 M (KCl)
Description: The UV–vis spectra were recorded on an Agilent Cary 8454 diode array spectrophotometer between 200 and 800 nm. Spectrophotometric titrations were carried out on samples containing the ligand (HL^1, HL^2, HL^5 or HL^1(7)) or the ligand and Cu(II) ions together at different ligand-to-metal ratios (1 : 1, 1.5 : 1, 2 : 1) by a KOH solution in a DMSO : water 30 : 70 (v/v) mixture as solvent at 25.0 ± 0.1 °C in the pH range from 1.7 to 12.7 using 0.1 M KCl ionic strength. The concentration of ligands was 10 μM. The path length was 5 cm. For pH measurements and titrations, an Orion 710A pH-meter equipped with a Metrohm combined electrode (type 6.0234.100) and a Metrohm 665 Dosimat burette was used. Blank titrations (HCl vs. KOH) were performed similarly to the method proposed by Irving et al. for pure aqueous solutions to calibrate the electrode system to the pH = −log[H+] scale in the DMSO–water solvent mixture.[83] The water ionization constant (pKw) was determined to be 14.52 ± 0.05 on average, which is in line with the literature data.[84] During the titrations argon was passed over the solutions. The computer program PSEQUAD was used to calculate the proton dissociation constants (pKa) of the ligands, the overall stability constants (log β) of the Cu(II) complexes and the individual spectra of the various species present in solution.[85] […]

[7] = Stability constants and pKa of Cu(II) complexes by UV-vis titrations; assay type: physicochemical; conditions: 30:70% (v/v) DMSO/H2O
Description: The UV–vis spectra were recorded on an Agilent Cary 8454 diode array spectrophotometer between 200 and 800 nm. Spectrophotometric titrations were carried out on samples containing the ligand (HL^1, HL^2, HL^5 or HL^1(7)) or the ligand and Cu(II) ions together at different ligand-to-metal ratios (1 : 1, 1.5 : 1, 2 : 1) by a KOH solution in a DMSO : water 30 : 70 (v/v) mixture as solvent at 25.0 ± 0.1 °C in the pH range from 1.7 to 12.7 using 0.1 M KCl ionic strength. The concentration of ligands was 10 μM. The path length was 5 cm. For pH measurements and titrations, an Orion 710A pH-meter equipped with a Metrohm combined electrode (type 6.0234.100) and a Metrohm 665 Dosimat burette was used. Blank titrations (HCl vs. KOH) were performed similarly to the method proposed by Irving et al. for pure aqueous solutions to calibrate the electrode system to the pH = −log[H+] scale in the DMSO–water solvent mixture.[83] The water ionization constant (pKw) was determined to be 14.52 ± 0.05 on average, which is in line with the literature data.[84] During the titrations argon was passed over the solutions. The computer program PSEQUAD was used to calculate the proton dissociation constants (pKa) of the ligands, the overall stability constants (log β) of the Cu(II) complexes and the individual spectra of the various species present in solution.[85] In the general equilibrium pM + qL + rH ⇌ MpLqHr the stability constants is defined as β(MpLqHr) = [MpLqHr]/[M]^p[L]^q[H]^r, where M denotes the Cu(II) ion and L the completely deprotonated ligand. The calculations were always performed from experimental data where no precipitation was observed during titration.

ct-DNA = test: Ethidium displacement from ct-DNA by spectrofluorimetry; assay type: binding, calf; conditions: cDNA = 0.5 μM, cethidium = 0.25 μM, 298 K, 10 mM HEPES, pH 7.40
Description: Fluorescence measurements were carried out on a Fluoromax (Horiba Jobin Yvon) fluorimeter. Stock solutions of the complexes and ligands were prepared in pure DMSO (c = 1 or 0.5 mM). Stock solution of ct-DNA was prepared as described recently.[86] The sample volume was […] and contained 0.5 μM ct-DNA expressed in base pairs, 0.25 μM ethidium and different concentrations of complexes 1, 2, 4, 5, 6, 4(6), 4(7) or ligands (HL^1, HL^2, HL^5, HL^6) in 10 mM HEPES buffer (pH 7.40). DMSO content of the samples varied between 0 and 1% (v/v). The excitation wavelength was 510 nm, and the fluorescence emission was measured in the range of 530–750 nm. Corrections for self-absorbance and inner filter effect were performed as described previously.[87]

[8] = system: tubulin (colchicine site); test: Inhibition of [3H]colchicine binding to tubulin; conditions: 0.5 μM tubulin, 5 μM [3H]colchicine
Description: The methods used to determine the IC50 values for tubulin assembly and inhibition of [^3H]colchicine binding were recently described in detail.[96] In brief, for the assembly assay, 0.25 mL reaction mixtures contained 1.0 mg mL^−1 (10 μM) tubulin, 0.8 M monosodium glutamate (pH 6.6 with HCl in 2.0 M stock solution), 4% (v/v) DMSO (compound solvent), varying compound concentrations, and 100 μM GTP. All components except GTP were preincubated at 30 °C for 15 min in a 0.24 mL volume. Reaction mixtures were then placed on ice, and the GTP was added in a 10 μL volume. Assembly was monitored in Beckman DU7400/7500 spectrophotometers equipped with electronic temperature controllers and driven by a custom program. The samples were transferred to cuvettes held at 0 °C, and the temperature was jumped to 30 °C over about 30 s. Change in turbidity was measured for 20 min at 350 nm, and the IC50 was defined as the compound concentration that reduced the extent of reaction by 50%. For the colchicine binding assay, reaction mixtures contained 0.05 mg mL^−1 (0.5 μM) tubulin, 5.0 μM [^3H]colchicine, 5% (v/v) DMSO (compound solvent), compound as indicated, and components found to stabilize the colchicine binding activity of tubulin. Incubation was for 10 min at 37 °C, at which time the amount of colchicine bound to the tubulin is 40–60% of maximum. Each reaction mixture was diluted with 2.0 mL of ice cold water and poured onto a single Whatman DEAE-cellulose filter (tubulin binds tightly to the filter, and unbound colchicine passes through). Gravity filtration was used for the samples, and the filters were then washed with three 2.0 mL aliquots of ice cold water (vacuum aspiration). The filters were counted in a Beckman scintillation counter, with correction for the amount of radiolabel bound to filters in the absence of tubulin.

[9] = Cu(II) complex of the ligand, T = 298 K, I = 0.10 M (KCl)
[10] = selectivity factor normal vs cancer cells

Row | solubility thermodynamic [5] [µM] | pKa ([6]; read-out: pKa1 H2(HL)^2+) | pKa ([6]; read-out: pKa2 H(HL)^+) | log β [Cu(HL)]^2+ [7, 9] | log β [Cu(L)]^+ [7, 9] | log K′ [Cu(L)]^+ ([7]; K′: H2(HL)^2+ + Cu^2+ ⇌ [Cu(L)]^+ + 3H^+, 298 K) | Inhibition of colchicine binding % inhibition ± SD ([8]; 5 μM inhibitor) [%] | Inhibition of colchicine binding % inhibition ± SD ([8]; 25 μM inhibitor) [%] | Compound | IC50 [1] [µM] | IC50 [2] [µM] | IC50 [3] [µM] | IC50 [4] [µM] | SF (Colo205) = IC50 MRC-5/IC50 Colo205 [1, 10] | SF (Colo320) = IC50 MRC-5/IC50 Colo320 [2, 10] | SF (MCF-7) = IC50 MRC-5/IC50 MCF-7 [4, 10] | Displacement of intercalated ethidium from ct-DNA (in words) (ct-DNA)
1 |  |  |  |  |  |  |  |  | COc1cccc2c1C(=O)c1c(O)c3c(c(O)c1C2=O)C[C@@](O)(C(=O)CO)C[C@@H]3O[C@H]1C[C@H](N)[C@H](O)[C@H](C)O1 [Doxorubicin, doxorubicin, reference compound] | 0.82 ± 0.02 | 3.3 ± 0.1 | 1.16 ± 0.11 | 0.21 ± 0.03 |  |  |  | 
2 | 8 (≈ 2.92 µg/mL) | 2.07 ± 0.01 | 5.04 ± 0.02 | 8.55 ± 0.02 | 4.14 ± 0.02 | −2.97 | 18 ± 5 | 46 ± 5 | C(=N\N=C1/NCCc2ccccc2-c2c1[nH]c1ccccc21)/c1ccccn1 [HL^1] | 30 ± 2 | 5.6 ± 0.1 | 40 ± 1 | 1.3 ± 0.1 | 1.37 | 7.26 | 31.03 | could not displace the intercalated ethidium cation

— PMC10368209, “Indolo[2,3-e]benzazocines and indolo[2,3-f]benzazonines and their copper(II) complexes as microtubule destabilizing agents” (Dalton Transactions (Cambridge, England : 2003), 2023)
